{"source": "patent US6506555B1", "about": "“Use of HIV protease inhibiting compounds” (Institut National de la Sante et de la Recherche Medicale …, priority 1998, dated 2003)", "key": {"CD8+ T lymphocytes": {"system": "CD8+ T lymphocytes", "assay": "Proliferation of the CD8+ T lymphocytes in vivo (FACS of splenocytes)", "parameters": "species or system mice", "conditions": "200 pfu LCMV-WE i.v., anti-CD8 FACS"}, "[1]": {"assay": "Appearance of type 1 diabetes in NOD mice", "type": "in vivo", "conditions": "ritonavir versus diluent", "description": "FIG. 5 represents the percentage of nondiabetic NOD mice as a function of time, in the case of a treatment with ritonavir compared with administration of a diluent.\nRitonavir (0.6 mg per 10 g of body weight per day) or a placebo (phosphate buffer PBS) was administered by the intraperitoneal route to NOD mice. The pancreatic islets were removed and cultured for 24 hours in the presence or in the absence of 2.5 μg/ml of ritonavir. The cells were then cocultured with MHC-1-restricted hybridomas (FT6.9 and FT7.9 for 24 hours). The quantity of IL-2 was assayed in the supernatant."}, "cytotoxic T lymphocytes [2]": {"system": "cytotoxic T lymphocytes", "type": "in vivo, C57BL/6 mice", "conditions": "splenocytes eight days after i.v. LCMV-WE; EL4 cells sensitized with GP33-41 or NP peptide"}, "cytotoxic T lymphocytes [3]": {"system": "cytotoxic T lymphocytes", "type": "in vivo, C57BL/6 mice", "conditions": "mice infected in the footpad with LCMV-WE; swelling after seven to eight days"}, "[4]": {"assay": "Experimental allergic encephalitis in rats", "type": "in vivo, Lewis rats", "parameters": "key to clinical score of EAE: 1: weakness of the movements of the tail; 2: incomplete paralysis of the hindquarters; 3: complete paralysis of the hindquarters; 4: incomplete paralysis of the forequarters; 5: total immobility", "description": "Experimental allergic encephalitis in rats is the only model of multiple sclerosis in humans. The guinea pig MBP (Myelin Basic Protein) is administered to 7-week old female Lewis rats by a subcutaneous injection, into the footpad, of 50 μg of MBP in 100 μl of complete Freund's adjuvant supplemented with 4 μg/ml of mycobacteria. There are administered, in addition, to these rats, daily, either 1 mg, 5 mg or 10 mg of ritonavir, per animal, or a placebo (phosphate buffer) of MBP injection until the animals not treated with ritonavir are killed. The clinical scores measuring the progression of the experimental allergic […] following: 1: weakness of the movements of the tail; 2: incomplete paralysis of the hindquarters; 3: complete paralysis of the hindquarters; 4: incomplete paralysis of the forequarters; and 5: total immobility. About eight days after this immunization with MBP, the control rats started to show the first stages of paralysis (temporary) due to the immune response caused by the administration of myelin."}, "MC57 fibroblasts (H-2b)": {"system": "MC57 fibroblasts (H-2b)", "conditions": "MC57 cells infected with LCMV, ritonavir 5 μg/ml for 36 hours"}, "[5]": {"system": "M113 cells presenting the MART-1 antigen", "assay": "TNFα production by M77-84 T lymphocytes in response to treated M113 melanoma cells", "conditions": "M113 cells cultured 24 hours with various concentrations"}, "LCMV": {"system": "LCMV", "type": "in vivo, mice", "conditions": "day D8; 200 pfu LCMV i.v."}}}
{"smiles": "CC(C)c1nc(CN(C)C(=O)N[C@H](C(=O)N[C@@H](Cc2ccccc2)C[C@H](O)[C@H](Cc2ccccc2)NC(=O)OCc2cncs2)C(C)C)cs1", "note": "[ritonavir]", "values": [{"measurement": "proliferation of the CD8+ T lymphocytes in response to the LCMV virus", "setting": "CD8+ T lymphocytes", "result": "Inhibition"}, {"measurement": "appearance of type 1 diabetes", "setting": "[1]", "result": "delays"}, {"measurement": "lysis of the target cells (direct lysis ex vivo after systemic infection)", "setting": "cytotoxic T lymphocytes [2]", "result": "reduced"}, {"measurement": "swelling of the footpad after injection of LCMV", "setting": "cytotoxic T lymphocytes [3]", "result": "markedly inhibited"}, {"measurement": "clinical score of EAE", "setting": "[4]; other rats treated with 10 mg per animal daily", "result": 1}, {"measurement": "development of the disease (EAE)", "setting": "[4]; rats treated with 10 mg per animal daily", "result": "two did not develop the disease"}, {"measurement": "appearance of the first signs of paralysis", "setting": "[4]; rats treated with 1 and 5 mg per animal daily", "result": "delayed"}, {"measurement": "lysis by the anti-LCMV cytotoxic T lymphocytes", "setting": "MC57 fibroblasts (H-2b)", "result": "strongly inhibits"}, {"measurement": "presentation of MART-1 antigen: release of TNFα by M77-84 T lymphocytes", "setting": "[5]", "result": "inhibition"}, {"measurement": "viral clearance (titre of viruses in the spleen)", "setting": "LCMV", "result": "decrease in the viral clearance"}]}
